According to patent US10076578B2, “Probes for imaging of hypoxia” (Vanderbilt University, priority 2014, dated 2018):
Structures can show the parent of a compound that is named as a salt.

Experiments:
[1] = test system: R28 rat retinal neuronal cells; assay: in vitro imaging agent uptake assay (microplate fluorescence spectrophotometric assay); assay type: cell-based; conditions: for dose dependence of fluorescence in hypoxic cells: 12 h hypoxia, n=8
Method: (§1) Primary human Müller cells and R28 cell line were grown in low glucose DMEM supplemented with 10% Fetal Bovine Serum, 1× GlutaMAX, and 1× Penicillin-Streptomycin. All cells were maintained in a humidified environment with 5% CO2 at 37° C. unless otherwise noted. For hypoxia induction, assay plates were placed into a humidified chamber and ambient air was displaced with a mixture of 5% CO2 and 95% N2 at a flow rate of 20 L/min for 5 min according to manufacturer instructions and published methods (28). The chamber was clamped and placed at 37° C. for the remainder of the time point. R28 cells were treated with 100 μM pimonidazole hydrochloride diluted in complete media and subjected to hypoxia or normoxia for 4 h.
(§2) To perform in vitro imaging agent uptake assays, R28 cells or primary human Müller cells were seeded at a density of 15,000 cells per well in a 96-well black plate with clear bottom. When 90% confluent, assay plates were either place in hypoxia or kept in normoxia for 12 h. They were treated with imaging agents diluted in complete media and returned to hypoxia or kept in normoxia for 30 min. They were washed 4 times with pre-warmed Hank's Buffered Salt Solution (HBSS), kept in normoxia for 1 h, then washed 4 more times in HBSS. Fluorescence intensity was read ([…]: 490 nm, Emission: 520 nm) using a Synergy Mx Plate Reader from Biotek.
(§3) In order to measure the specificity of HYPOX-1 and HYPOX-2 for hypoxic retinal tissues in vitro, R28 rat retinal neuronal (17, 18) or primary human Müller cells (19) were conditioned in a hypoxic chamber purged with a mixture of nitrogen/carbon dioxide up to 12 h. These two cell lines model predominant oxygen-sensitive cell types in retinal diseases with a hypoxia-ischemia component (20). […] The micromolar doses of HYPOX-1 and HYPOX-2 used in these experiments are modeled on doses used to achieve optimal signal to background ratios using pimonidazole immunohistochemistry (21).

[2] = test system: primary human Müller cells; assay: as above; assay type: cell-based; conditions: for increase in hypoxic/normoxic fluorescence intensity ratio: 100 μM; for increase in hypoxic/normoxic fluorescence intensity ratio / dose dependence of fluorescence in hypoxic cells: 12 h hypoxia; for dose dependence of fluorescence in hypoxic cells: Müller cells, n=8
Method: as §1, §2, §3

[3] = test system: Human Retinal Microvascular Endothelial Cells (HRMEC); assay: Western analysis of cell lysates with anti-Hypoxyprobe antibody; assay type: cell-based; conditions: 100 μM, 4 h, hypoxic vs normoxic HRMEC
Method: FIG. 2G. HYPOX-1 accumulation in hypoxic retinal cells occur through nitroimidazole adduct formation. Human Retinal Microvascular Endothelial Cells (HRMEC) were treated with 100 μM HYPOX-1 under normoxic or hypoxic conditions for 4 h. Cell lysates were probed with an anti-Hypoxyprobe antibody by Western analysis.
(§4) Imaging of R28 cells incubated with the hypoxia-sensitive imaging agents further confirmed specificity and mechanism of action.

R28 cells [4] = assay: BrdU cell proliferation assay (in vitro toxicity); assay type: cell-based, rat; conditions: up to 100 μM, 24 h
Method: FIG. 3A-3B. […] (n=4), p<0.01.
For in vitro toxicity studies, a BrdU cell proliferation assay was performed on R28 cells. The assay was performed according to the manufacturer's protocol with the following specifications. Cells were seeded at 2000 cells/well in a 96-well plate. 24 h after seeding, the cells were serum starved for 6 h. Imaging agents and vehicle controls diluted in complete media were added and allowed to incubate for 24 h. 4 h prior to the end of the incubation, BrdU was added at a concentration of 10 μM.
Both imaging agents were not acutely toxic to retinal cells as assessed by BrdU cell proliferation assays (FIG. 3).

[5] = test system: avascular hypoxic retina of OIR mice; assay: mouse model of oxygen induced retinopathy (OIR), ex vivo imaging of retinal flatmounts; assay type: in vivo
Source text: FIG. 4A-4F. […] FIGS. 4(A) and 4(C) HYPOX-1 in P13 OIR mouse retina. FIGS. 4(B) and 4(D) Pimonidazole immunostaining colocalizes with HYPOX-1 region. […] FIG. 5. Retinal flatmounts from OIR mice intravenously injected with HYPOX-1 (green) were stained with endothelial cell marker, ICAM-2 (red). Accumulation of HYPOX-1 is observed in avascular retina. The mouse model of oxygen induced retinopathy (OIR) was selected as a mouse model for hypoxia and generated as published (24). Briefly, litters with 6 to 8 pups were placed into a 75% oxygen chamber with dams from P7-P12. On P12, pups were removed from the hyperoxic environment to room air. Imaging agents, vehicle controls and dye controls were intravitreally injected (3 μg in 1 μL injection volume) or intravenously injected via tail vein (60 mg/kg) 6 h after removal from hyperoxic environment. Pimonidazole hydrochloride (Hypoxyprobe Inc.) was injected intraperitoneally at a concentration of 60 mg/kg body weight. Immunofluorescence analysis of retinal tissues was performed by dissecting retinas from ocular tissues and fixing them in 10% neutral buffered formalin for 2 h. Tissues were then rinsed in Tris buffered saline and blocked/permeabilized in 10% donkey serum with 1% Triton X-100/0.05% Tween 20 in TBS for 6 h. Retinas were then stained for ICAM-2 and Hypoxyprobe followed by secondary antibody staining as indicated. […] Staining of excised retinas with ICAM-2 was used to identify retinal vasculature and its association with HYPOX staining. […] In addition, HYPOX accumulation in retinal tissue can be accomplished through intraocular or intravenous injection routes.

R28 cells [6] = assay: Hypoxyprobe adduct immunostaining of normoxia- or hypoxia-conditioned cells; assay type: cell-based, rat; conditions: 100 μM
Method: as §1, with “FIG. 1A. R28 cells were treated with 100 μM pimonidazole hydrochloride (Hypoxyprobe) and subjected to normoxia or hypoxia-conditioning for 4 h, followed by Hypoxyprobe adduct immunostaining. […] Primary” for “Primary”, “h. In order to measure the specificity of HYPOX-1 and HYPOX-2 for hypoxic retinal tissues in vitro, R28 rat retinal neuronal (17, 18) or primary human Müller cells (19) were conditioned in a hypoxic chamber purged with a mixture of nitrogen/carbon dioxide up to 12 h. These two cell lines model predominant oxygen-sensitive cell types in retinal diseases with a hypoxia-ischemia component (20). […]” for “h.”

R28 cells [7] = assay: immunofluorescence imaging of cells incubated with imaging agent; assay type: cell-based, rat; conditions: 100 μM, 4 h
Method: FIG. 2A-2F. R28 retinal neuronal cell lines conditioned under normoxic or hypoxic (4 h) conditions were incubated with 100 μM HYPOX-2 followed by fixation and immunostaining with an antibody specific for pimonidazole adducts in hypoxic cells.
Immunofluorescence analysis of cells was performed by seeding R28 cells at a density of 15,000 cells per well of 8-well chamber slides. When 90% confluent, cells were treated with either imaging agent and pimonidazole hydrochloride or imaging agent only, diluted in complete media, and placed in hypoxia or normoxia for 4 h. Cells were washed 4 times in HBSS, fixed for 10 min with 10% neutral buffered formalin at room temperature, washed 3 times with tris buffered saline and mounted with Prolong Gold with DAPI mounting media.
as §4

| SMILES | fluorescence intensity of hypoxia-conditioned vs normoxia-conditioned cells [1] | dose dependence of fluorescence in hypoxic cells [1] | increase in hypoxic/normoxic fluorescence intensity ratio ([2]; human Müller cells) [fold] | dose dependence of fluorescence in hypoxic cells [2] | detectability of probe ([2]; concentrations lower than 50 μM) | fluorescence intensity of hypoxia-conditioned vs normoxia-conditioned cells ([2]; human Müller cells) | nitroimidazole adduct formation (Western) [3] | cell proliferation (BrdU incorporation) (R28 cells [4]) | accumulation in retina, intraocularly injected ([5]; OIR mice P13, intravitreal 3 μg, retinal flatmounts) | accumulation in retina, intravenously injected ([5]; OIR mice, tail vein 60 mg/kg, ICAM-2 co-staining) | accumulation in retina of age matched control mice ([5]; room air control mice with fully vascularized retinas) | Hypoxyprobe immunostaining of central avascular retina ([5]; OIR mice, intraperitoneal 60 mg/kg) | accumulation in retina of room air mice (Hypoxyprobe staining) ([5]; room air mice) | Hypoxyprobe adduct immunostaining, hypoxia-conditioned cells (R28 cells [6]; 4 h hypoxia) | Hypoxyprobe adduct immunostaining, normoxia-conditioned cells (R28 cells [6]; 4 h normoxia) | greater fluorescence intensity in hypoxia-conditioned cells ([2]; 10 μM, human Müller cells) [fold] | pimonidazole adducts by adduct-specific antibody (R28 cells [7]; hypoxic R28 cells, but not normoxic cells) | accumulation in cells (fluorescence imaging) (R28 cells [7]; hypoxic vs normoxic R28 cells) |
| --- | --- | --- | --- | --- | --- | --- | --- | --- | --- | --- | --- | --- | --- | --- | --- | --- | --- | --- |
| O=C1OC2(c3ccc(O)cc3Oc3cc(O)ccc32)c2ccc(NC(=S)NCCCCCn3ccnc3[N+](=O)[O-])cc21 [HYPOX-1] | significantly higher fluorescence intensity | dose-dependent fluorescence enhancement | 5 | dose-dependent fluorescence enhancement | not detectable | significantly higher fluorescence intensity | Adduct formation was increased in hypoxic cells | no significant decrease in cell proliferation | accumulation of intraocularly-injected HYPOX-1 in central avascular retinas | accumulated in avascular regions | did not accumulate |  |  |  |  |  |  |  |
| O=[N+]([O-])c1nccn1CC(O)CN1CCCCC1 (stereo not drawn) [pimonidazole hydrochloride, reference compound] |  |  |  |  |  |  |  |  |  |  |  | positive immunostaining | no pimonidazole accumulation | positive staining | minimal fluorescence |  |  |  |
| O=C1OC2(c3ccc(O)cc3Oc3cc(O)ccc32)c2ccc(NC(=S)NCC3CCN(CC(O)Cn4ccnc4[N+](=O)[O-])CC3)cc21 (stereo not drawn) [HYPOX-2] | significantly higher fluorescence intensity | dose-dependent fluorescence enhancement | 11 | dose-dependent fluorescence enhancement |  | significantly higher fluorescence intensity |  | no significant decrease in cell proliferation |  |  |  |  |  |  |  | 32 | positive for pimonidazole adducts | accumulated in hypoxic cells but not normoxic cells |
